In publication PMC9412994 (Pharmaceutics, 2022):
Where two headings read alike, the source gives them in different places. Values belong to the molecule of their own block, whether it stands above or below them.

Legend:
human P-gp [1] = molecular target: T1, human P-gp (Homo sapiens, UniProt P08183); details: MDCK-MDR1 cells, same origin; cited from earlier work
T1 construct: host or cells: MDCKII-MDR1 (stably transfected canine kidney cells)

[2] = system: bovine brain capillary endothelial cells; details: bovine brain capillary endothelial cells on filter inserts, co-culture with glial cells; cited from earlier work
[3] = rats, cited from earlier work
P-gp [4] = details: cited from earlier work
rodent P-gp = system: rodent P-gp; parameters: method as in PMID 32856111; details: LLC-PK1-Mdr1a cells; cited from earlier work
[5] = cited from earlier work
[6] = Arterial input function and plasma metabolism of the radiotracer in rats; type: in vivo; details: rat
Description: Blood samples (50 µL) were collected at selected times from the femoral artery to establish total radioactivity kinetics in arterial plasma. Plasma was separated from whole blood by centrifugation (5 min, 2054 g, 4 °C), and 20 µL of plasma and whole blood were counted using a PET cross-calibrated gamma well counter (WIZARD2, PerkinElmer, Villebon-sur-Yvette, France) to obtain the whole-blood and plasma activity curves. All data were corrected for radioactive decay from the injection time. For the larger blood samples, 80 µL plasma was deproteinized with acetonitrile. The supernatant was injected in high-performance liquid chromatography, equipped with an Atlantis® T3 5 μm 10 × 250 mm column (Waters, Guyancourt, France) and an Atlantis® T3 5 μm 19 × 10 mm pre-column (Waters) with an LB-514 radioactivity flow detector (Berthold, France, MX Z100 cell). The mobile phase was composed of water containing 0.1% (v/v) TFA (solvent A) and acetonitrile containing 0.1% (v/v) TFA (solvent B) delivered in a gradient elution mode at a flow rate of 5 mL min^−1: solvent B increased linearly from 20 to 30% from 0 to 9 min.
The method for [^11C]metoclopramide metabolism has been previously reported.

[7] = Brain PET imaging in rats at baseline and after P-gp inhibition with TQD; type: in vivo; details: rat
Description: (§1) PET acquisitions were performed using an Inveon microPET scanner (Siemens, TN, USA). […] Radiotracers were diluted in saline to obtain at least <10% ethanol in the ready-to-inject preparation.
(§2) TQD was used to inhibit P-gp function in rats. TQD was injected in a volume of 200–300 µL into the caudal vein 15 min before radiotracer injection.
(§3) Images were reconstructed with the Fourier rebinning algorithm and the three-dimensional ordered-subset expectation-maximization algorithm, including normalization, attenuation, scatter, and random corrections. Image analysis and quantification of radioactivity uptake were performed using PMOD software (version 3.9; PMOD Technologies, Zurich, Switzerland). A region of interest was drawn over the whole brain to generate time-activity curves (TACs) with time frame durations of 0.25 min, 2 × 0.5 min, 0.75 min, 4 × 1 min, 1.5 min, 4 × 2 min, 3 × 2.5 min, 3 × 3 min, and 3.5 min. Brain radioactivity was corrected for ^11C decay and expressed as the standardized uptake value (SUV) after correction by injected dose and animal weight.
(§4) The mean AUCplasma 20–30 was obtained in each condition to estimate Kp,brain = AUCbrain 20–30/AUCplasma 20–30, considering the mean metabolite-corrected arterial input function. Kp,brain were compared with a two-way ANOVA and a Tukey’s post hoc test using Graphpad Prism software (V8.0, San Diego, CA, USA).

P-gp [8] = assay: as above; type: in vivo; details: brain/plasma, with tariquidar; rat; presence of P-gp inhibition (TQD); newly calculated from published PET data of ref 21, 24
Description: as §1, §2, §3, §4

human P-gp [9] = molecular target: T1, human P-gp; parameters: method as in PMID 34496661; details: cited from earlier work; for IC50: read-out: IC50 of TQD (P-gp inhibition)
[10] = parameters: method as in PMID 26585058, PMID 34496661; details: rat; 8 mg/kg tariquidar versus baseline; cited from earlier work
[11] = rat; 60 min post-injection; cited from earlier work
human P-gp [12] = molecular target: T1, human P-gp; assay: Uptake assay in P-gp overexpressing MDCKII-MDR1 cells with radiolabeled substrate and tariquidar; type: cell-based; details: [11C]domperidone as substrate, 30 min incubation, CI95% 198-248 nM, read-out: IC50 of TQD (P-gp inhibition)
Description: Culture media and buffers were obtained from Fischer Scientific, France. Stably transfected MDCKII-MDR1 cells were obtained from Dr. Alfred Schinkel (National Cancer Institute, Amsterdam, The Netherlands) and were grown under a controlled atmosphere at 37 °C, 5% CO2. The culture medium was composed of DMEM Glutamax (Dulbecco’s Modified Eagle Medium, 4.5 g/Ldextrose, 1 mM pyruvate) supplemented with 10% fetal bovine serum and 1% antibiotics (penicillin and streptomycin 5000 U/mL).
Cells were seeded in 24-well plates (30,000 cells per well) in a 500 μL culture medium. Cells were grown to confluence (~2 days). […] Then, 400 μL of cell lysate was collected from each well (n = 4 wells per condition) and gamma counted using a Cobra Quantum (Perkin-Elmer, Villebon-sur-Yvette, France).
Counting values obtained in each well were normalized using Equation (1):(1) I%=R−mRzero/mRmax×100 where I% is the extent of inhibition (I%) between 0 and 100%, R is the radioactivity in the 4 tested wells, mRzero is the mean of the 4 wells without TQD, and mRmax is the difference of means between the 4 wells containing the highest concentration of TQD (800 nM) and the 4 wells without TQD. […]

T1 sequence (P08183 whole entry): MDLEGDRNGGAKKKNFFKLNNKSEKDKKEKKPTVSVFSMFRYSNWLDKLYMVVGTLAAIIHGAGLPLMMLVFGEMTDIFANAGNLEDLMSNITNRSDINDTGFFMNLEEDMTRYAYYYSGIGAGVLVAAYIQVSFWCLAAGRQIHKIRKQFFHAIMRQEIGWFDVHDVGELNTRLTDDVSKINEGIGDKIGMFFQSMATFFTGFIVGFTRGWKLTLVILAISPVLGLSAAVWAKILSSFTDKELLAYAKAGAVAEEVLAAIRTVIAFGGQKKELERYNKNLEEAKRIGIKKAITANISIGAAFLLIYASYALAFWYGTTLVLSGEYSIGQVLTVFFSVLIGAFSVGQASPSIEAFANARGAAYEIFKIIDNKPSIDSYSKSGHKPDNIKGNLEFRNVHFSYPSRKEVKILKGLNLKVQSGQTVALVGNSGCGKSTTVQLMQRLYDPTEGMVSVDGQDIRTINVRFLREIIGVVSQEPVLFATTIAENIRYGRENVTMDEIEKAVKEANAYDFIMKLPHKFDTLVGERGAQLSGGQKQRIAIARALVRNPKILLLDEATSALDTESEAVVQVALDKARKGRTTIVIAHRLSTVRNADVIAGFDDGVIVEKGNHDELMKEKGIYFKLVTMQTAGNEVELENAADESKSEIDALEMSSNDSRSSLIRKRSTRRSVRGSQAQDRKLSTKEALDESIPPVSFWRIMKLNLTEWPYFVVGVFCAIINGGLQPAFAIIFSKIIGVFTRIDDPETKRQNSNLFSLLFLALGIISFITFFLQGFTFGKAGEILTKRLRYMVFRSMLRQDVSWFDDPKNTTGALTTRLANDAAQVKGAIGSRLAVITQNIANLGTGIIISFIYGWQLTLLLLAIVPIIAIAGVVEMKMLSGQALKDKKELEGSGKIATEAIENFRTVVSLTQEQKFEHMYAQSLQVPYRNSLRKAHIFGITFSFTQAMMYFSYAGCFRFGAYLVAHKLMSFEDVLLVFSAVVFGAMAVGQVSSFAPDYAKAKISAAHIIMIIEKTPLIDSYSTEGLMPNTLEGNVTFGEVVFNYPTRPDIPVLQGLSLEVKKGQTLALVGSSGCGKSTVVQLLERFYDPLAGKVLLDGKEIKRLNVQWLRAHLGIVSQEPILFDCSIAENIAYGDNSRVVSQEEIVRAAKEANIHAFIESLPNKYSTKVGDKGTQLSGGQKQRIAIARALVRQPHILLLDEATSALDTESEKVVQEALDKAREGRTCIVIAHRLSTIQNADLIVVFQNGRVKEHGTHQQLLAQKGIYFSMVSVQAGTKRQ

SMILES: CCN(CC)CCNC(=O)c1cc(Cl)c(N)cc1OC [Metoclopramide]
- Efflux ratio (human P-gp [1]): 1.4
- Passage across in vitro BBB model compared with passage across the filter (no BBB) [2]: 100%
- Kp,uu,brain ([3]; another study): 0.235
- Tissue/plasma ratio (Kp,brain) ([3]; ex vivo): 1.72
- Kp,uu,brain [3]: 2.4
- Fold increase in Kp,brain in P-gp deficient mice compared with wild-type mice (P-gp [4]): 6.6 fold
- Efflux ratio (rodent P-gp): 1.6
- Neurological side effects: Frequent [5]: extrapyramidal signs, parkinsonian syndrome, akathisia
- Neurological side effects: Not Frequent [5]: dystonia, dyskinesia, altered consciousness
- Neurological side effects: Rare [5]: convulsions
- Neurological side effects: Unspecified frequency [5]: late dyskinesia, neuroleptic malignant syndrome
- Neurological side effects: Very Frequent [5]: sleepiness

- Parent (unmetabolized) fraction in plasma ([6]; 60 min post-injection): > 30%
- Effect of TQD on the fraction of parent (unmetabolized) radiotracer in plasma ([6]; with versus without TQD): did not impact
SMILES: O=c1[nH]c2cc(Cl)ccc2n1C1CCN(CCCn2c3ccccc3[nH][11c]2=O)CC1 [[^11C]domperidone]

- Kp ([7]; brain/plasma, absence of P-gp inhibition, newly calculated from published PET data of ref 21, 24): 10.1 ± 2.01
- Baseline brain exposure (AUCbrain), fold higher compared with [11C]domperidone ([7]; baseline): 2.4 fold
- Kp (P-gp [8]): 47 ± 5.52
SMILES: CCN(CC)CCNC(=O)c1cc(Cl)c(N)cc1O[11CH3] [[^11C]metoclopramide]
- Uptake ratio (intracellular radioactivity after complete P-gp inhibition / without inhibition) (human P-gp [9]; MDCKII-MDR1 cells, 200 nM TQD): 1.4 ± 0.07
- Maximal increase in brain exposure [10]: 2.9 fold
- Parent (unmetabolized) fraction in plasma [11]: could hardly be detected

- IC50 (human P-gp [12]): 221 nM
SMILES: COc1cc2c(cc1OC)CN(CCc1ccc(NC(=O)c3cc(OC)c(OC)cc3NC(=O)c3cnc4ccccc4c3)cc1)CC2 [tariquidar, Tariquidar]
- IC50 (human P-gp [9]; [11C]N-desmethyl-loperramide as substrate probe, same experimental conditions): 19 nM
- IC50 (human P-gp [9]; [11C]metoclopramide as substrate, MDCKII-MDR1 cells, CI95% 2-8 nM): 4 nM
- IC50 (human P-gp [9]; [11C]verapamil as substrate probe, same experimental conditions): 45 nM
